Experimental data as given in DBAASP.
≈ marks a conversion by molar mass, not a printed value. Blank lines part the entries; values can stand above or below the compound they belong to.

Tests used:
Assay in all cases: ≥ marks a high value that may be exact or a test limit, other limits are often not marked, values filed in µg/mL are converted to µM
Trypanosoma cruzi = tested on: Trypanosoma cruzi
[1] = tested on: Pseudomonas aeruginosa 7A
Staphylococcus aureus 6A = tested on: Staphylococcus aureus 6A
Escherichia coli 23A = tested on: Escherichia coli 23A
[2] = tested on: Staphylococcus aureus 15A
[3] = tested on: Pseudomonas aeruginosa 3A
[4] = tested on: Candida albicans ATCC 2002
Escherichia coli 27A = tested on: Escherichia coli 27A
[5] = tested on: Escherichia coli ATCC 25922
[6] = tested on: Staphylococcus aureus ATCC 2592
[7] = tested on: Escherichia coli NCTC 8007
[8] = tested on: Escherichia coli NCTC 10418
Providencia stuartii = tested on: Providencia stuartii
Acinetobacter sp. = tested on: Acinetobacter sp.
Proteus mirabilis = tested on: Proteus mirabilis
Klebsiella aerogenes = tested on: Klebsiella aerogenes
[9] = tested on: Staphylococcus aureus NCTC 10571
Klebsiella sp. = tested on: Klebsiella sp.
[10] = tested on: Pseudomonas aeruginosa ATCC 27853
[11] = tested on: Acinetobacter baumannii ATCC 19606
[12] = tested on: Staphylococcus aureus JE2
[13] = tested on: Staphylococcus aureus ATCC 43300
[14] = tested on: Candida albicans ATCC 90028
[15] = tested on: Klebsiella pneumoniae ATCC 700603
[16] = tested on: Cryptococcus neoformans var. grubii H99
Escherichia coli K-12 = tested on: Escherichia coli K-12
[17] = tested on: Staphylococcus aureus CCRC 15211
[18] = tested on: Salmonella typhimurium CCRC 12947
[19] = tested on: Klebsiella pneumoniae CCRC 10694
[20] = tested on: Vibrio parahaemolyticus CCRC 10806
Pseudomonas aeruginosa = tested on: Pseudomonas aeruginosa
[21] = tested on: Streptococcus alactolyticus
[22] = tested on: Lactococcus lactis MG1363
Escherichia coli BL21 = tested on: Escherichia coli BL21
Escherichia coli JM109 = tested on: Escherichia coli JM109
Salmonella enterica = tested on: Salmonella enterica
Citrobacter koseri = tested on: Citrobacter koseri
Escherichia coli INV-a = tested on: Escherichia coli INV-a
Staphylococcus xylosus = tested on: Staphylococcus xylosus
[23] = tested on: Staphylococcus aureus CCRC 12652
[24] = tested on: Pseudomonas aeruginosa PAO1
[25] = tested on: Mannheimia haemolytica Serovar 1
[26] = tested on: Mannheimia haemolytica Serovar 6
[27] = tested on: Corynebacterium pseudotuberculosis ATCC 19410
[28] = tested on: Mannheimia haemolytica Serovar 2
Aspergillus fumigatus = tested on: Aspergillus fumigatus
Pasteurella multocida = tested on: Pasteurella multocida
Bibersteinia trehalosi = tested on: Bibersteinia trehalosi
Klebsiella pneumoniae = tested on: Klebsiella pneumoniae
Staphylococcus aureus = tested on: Staphylococcus aureus
[29] = tested on: Salmonella enterica subsp. arizonae

- MIC (Trypanosoma cruzi): 15.1 µM (≈ 30 µg/mL)
SMILES: CC[C@H](C)[C@H](NC(=O)[C@H](C)NC(=O)[C@H](CO)NC(=O)[C@@H](NC(=O)[C@H](C)NC(=O)[C@H](CC(N)=O)NC(=O)[C@@H](NC(=O)[C@H](C)NC(=O)[C@H](Cc1cnc[nH]1)NC(=O)[C@@H]1CCCN1C(=O)[C@@H](NC(=O)[C@H](CC(C)C)NC(=O)[C@H](CO)NC(=O)[C@H](CC(C)C)NC(=O)[C@@H](N)Cc1ccccc1)[C@@H](C)CC)[C@@H](C)CC)C(C)C)C(=O)N[C@@H](C)C(=O)N[C@@H](CCCCN)C(=O)N[C@@H](Cc1cnc[nH]1)C(=O)N[C@@H](CO)C(N)=O [FLSLIPHAINAVSAIAKHS]

- MIC [1]: 2.64 µM (≈ 3.75 µg/mL)
- MIC (Staphylococcus aureus 6A): 2.64 µM (≈ 3.75 µg/mL)
- MIC (Escherichia coli 23A): 5.28 µM (≈ 7.5 µg/mL)
- MIC [2]: 0.703 µM (≈ 1 µg/mL)
- MIC [3]: 2.64 µM (≈ 3.75 µg/mL)
- MIC [4]: 21.1 µM (≈ 30 µg/mL)
- MIC (Escherichia coli 27A): 10.6 µM (≈ 15 µg/mL)
- MIC [5]: 5.28 µM (≈ 7.5 µg/mL)
- MIC [6]: 1.34 µM (≈ 1.9 µg/mL)
SMILES: CC[C@H](C)[C@H](NC(=O)[C@@H](NC(=O)[C@@H]1CCCN1C(=O)[C@H](CCSC)NC(=O)[C@@H](N)Cc1ccccc1)[C@@H](C)CC)C(=O)NCC(=O)N[C@@H](CCCN=C(N)N)C(=O)N[C@@H](CC(C)C)C(=O)N[C@@H](CCSC)C(=O)N[C@@H](CO)C(=O)NCC(=O)N[C@@H](CO)C(=O)N[C@@H](CC(C)C)C(=O)O [FMPIIGRLMSGSL]

- MIC [7]: ≥ 500 µM
- MIC [8]: ≥ 500 µM
- MIC (Providencia stuartii): ≥ 1000 µM
- MIC (Acinetobacter sp.): 2 µM (≈ 3.97 µg/mL)
- MIC (Proteus mirabilis): ≥ 1000 µM
- MIC (Klebsiella aerogenes): ≥ 1000 µM
- MIC [9]: ≥ 500 µM
- MIC (Klebsiella sp.): ≥ 1000 µM
SMILES: CSCC[C@H](NC(=O)[C@H](CC(N)=O)NC(=O)[C@H](CCCN=C(N)N)NC(=O)[C@H](CCC(N)=O)NC(=O)[C@H](Cc1c[nH]c2ccccc12)NC(=O)[C@H](CCC(N)=O)NC(=O)[C@@H](N)Cc1ccccc1)C(=O)N[C@@H](CCCN=C(N)N)C(=O)N[C@@H](CCCCN)C(=O)N[C@H](C(=O)N[C@@H](CCCN=C(N)N)C(=O)NCC(=O)N1CCC[C@H]1C(=O)N1CCC[C@H]1C(=O)N[C@H](C(=O)N[C@@H](CO)C(=O)O)C(C)C)C(C)C [FQWQRNMRKVRGPPVS]

- MIC [10]: > 19.6 µM
- MIC [11]: > 19.6 µM
- MIC [12]: ≥ 39.3 µM
- MIC [13]: 19.6 µM (≈ 32 µg/mL)
- MIC [14]: 19.6 µM (≈ 32 µg/mL)
- MIC [15]: > 19.6 µM
- MIC [16]: 9.82 µM (≈ 16 µg/mL)
- MIC [5]: > 19.6 µM
- MIC (Escherichia coli K-12): 19.6 µM (≈ 32 µg/mL)
SMILES: CC[C@H](C)[C@H](NC(=O)[C@@H](NC(=O)[C@H](CO)NC(=O)[C@H](C)NC(=O)[C@@H](NC(=O)[C@H](CCCCN)NC(=O)[C@H](CCCCN)NC(=O)[C@@H](NC(=O)[C@@H](NC(=O)[C@H](CCC(=O)O)NC(=O)[C@H](Cc1ccccc1)NC(=O)[C@H](CC(C)C)NC(=O)CN)C(C)C)[C@@H](C)CC)C(C)C)C(C)C)C(=O)NCC(=O)NCC(=O)N[C@@H](CC(C)C)C(=O)O [GLFEVIKKVASVIGGL]

SMILES: CC[C@H](C)[C@H](N)C(=O)N[C@@H](CC(N)=O)C(=O)N[C@@H](Cc1c[nH]c2ccccc12)C(=O)N[C@@H](CCCCN)C(=O)NCC(=O)N[C@H](C(=O)N[C@@H](C)C(=O)N[C@@H](C)C(=O)N[C@@H](CCSC)C(=O)N[C@@H](C)C(=O)N[C@@H](CCCCN)C(=O)N[C@@H](CCCCN)C(=O)N[C@@H](CC(C)C)C(=O)N[C@@H](CC(C)C)C(N)=O)[C@@H](C)CC [INWKGIAAMAKKLL]
- MIC [17]: ≥ 41.1 µM
- MIC [18]: 20.6 µM (≈ 32 µg/mL)
- MIC [19]: ≥ 41.1 µM
- MIC [20]: 20.6 µM (≈ 32 µg/mL)
- MIC (Pseudomonas aeruginosa): 164 µM (≈ 256 µg/mL)
- MIC [21]: 10.3 µM (≈ 16 µg/mL)
- MIC [22]: 2.5 µM (≈ 3.89 µg/mL)
- MIC (Escherichia coli BL21): 5.14 µM (≈ 8 µg/mL)
- MIC [4]: 2.38 µM (≈ 3.7 µg/mL)
- MIC (Escherichia coli JM109): 5.14 µM (≈ 8 µg/mL)
- MIC (Salmonella enterica): 20.6 µM (≈ 32 µg/mL)
- MIC (Citrobacter koseri): 2.57 µM (≈ 4 µg/mL)
- MIC [5]: 4.82 µM (≈ 7.5 µg/mL)
- MIC (Escherichia coli INV-a): 8 µM (≈ 12.4 µg/mL)
- MIC (Staphylococcus xylosus): 1.93 µM (≈ 3 µg/mL)
- MIC [6]: 2.38 µM (≈ 3.7 µg/mL)
- MIC [23]: 20.6 µM (≈ 32 µg/mL)

- MIC [24]: 0.356 µM (≈ 0.6 µg/mL)
- MIC [27]: 11.9 µM (≈ 20 µg/mL)
- MIC (Aspergillus fumigatus): 3.44 µM (≈ 5.8 µg/mL)
- MIC (Pasteurella multocida): 11.9 µM (≈ 20 µg/mL)
- MIC (Bibersteinia trehalosi): 11.9 µM (≈ 20 µg/mL)
- MIC (Klebsiella pneumoniae): > 11.9 µM
- MIC (Staphylococcus aureus): > 11.9 µM
- MIC [29]: 11.9 µM (≈ 20 µg/mL)
SMILES: CC[C@H](C)[C@H](NC(=O)[C@H](Cc1cnc[nH]1)NC(=O)[C@@H](NC(=O)[C@@H](NC(=O)[C@H](CCCCN)NC(=O)[C@H](CCCN=C(N)N)NC(=O)[C@@H](NC(=O)[C@@H](NC(=O)[C@H](CCCN=C(N)N)NC(=O)[C@@H](N)CCCN=C(N)N)[C@@H](C)CC)[C@@H](C)CC)[C@@H](C)CC)[C@@H](C)CC)C(=O)N[C@H](C(=O)N[C@@H](CCCCN)C(=O)N[C@@H](CCCCN)C(N)=O)[C@@H](C)CC [RRIIRKIIHIIKK]
- MIC [25]: 4.92 µM (≈ 8.3 µg/mL)
- MIC [26]: 2.49 µM (≈ 4.2 µg/mL)
- MIC [28]: 2.73 µM (≈ 4.6 µg/mL)
